Reference: PMC8740755 (Proceedings of the National Academy of Sciences of the …, 2021)

Target: WipA (Legionella pneumophila, UniProt Q5ZS02)
Sequence (Q5ZS02 1-520): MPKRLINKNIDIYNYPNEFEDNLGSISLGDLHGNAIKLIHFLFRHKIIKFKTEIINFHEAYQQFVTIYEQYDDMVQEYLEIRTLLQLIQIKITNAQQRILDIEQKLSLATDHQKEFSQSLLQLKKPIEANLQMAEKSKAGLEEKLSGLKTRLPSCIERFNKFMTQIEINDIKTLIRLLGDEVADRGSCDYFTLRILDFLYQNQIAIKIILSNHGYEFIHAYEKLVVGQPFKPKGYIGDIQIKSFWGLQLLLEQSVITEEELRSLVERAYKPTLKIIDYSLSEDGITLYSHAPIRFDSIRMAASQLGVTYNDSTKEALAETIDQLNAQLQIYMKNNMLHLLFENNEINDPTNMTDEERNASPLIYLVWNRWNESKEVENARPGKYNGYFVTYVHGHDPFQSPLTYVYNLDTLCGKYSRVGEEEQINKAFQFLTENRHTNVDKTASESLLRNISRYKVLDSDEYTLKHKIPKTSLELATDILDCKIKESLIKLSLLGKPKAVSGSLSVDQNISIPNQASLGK

SMILES: O=[N+]([O-])c1ccc(OP(=O)(O)O)cc1 [pNPP]
- free phosphate by malachite green assay: exhibited robust activity, and a mutation in its active site abolished such activity
